From US6462184B2, “Compounds, processes and intermediates for synthesis of mixed backbone oligomeric compounds” (ISIS Pharmaceuticals, Inc., priority 1999, dated 2002)
[PN] = dimethylaminoethyl (DMAE) phosphoramidate internucleoside linkage; e = 2'-O-(2-methoxyethyl) (MOE); d = 2'-deoxy (DNA)

Tests used:
ICAM-1 = ICAM-1 expression in HUVEC cells (flow cytometry); format: cell-based, human
Description: Targeted oligomeric compounds were prepared and assayed using HUVEC cells to determine their ability to inhibit the expression of ICAM-1. HUVEC cells were washed three times with Opti-MEM (Life Technologies, Inc.) that was prewarmed to 37° C. Oligomeric compounds were premixed with Lipofectin (10 μg/mL, Life Technologies, Inc.) in Opti-MEM, serially diluted to the desired concentrations, and applied to washed cells. Basal and untreated (no oligomeric compounds added) control cells were also treated with Lipofectin. Cells were incubated for 4 hours at 37° C., at which time the medium was removed and replaced with standard growth medium with or without TNF-a ([…], R&D Systems). Incubation at 37° C. was continued for different times as indicated below.
A fluorescence-activated cell sorter was used to quantitate ICAM-1 protein expression. The cells were removed from the plate surface by brief trypsinization with trypsin (0.25%) in PBS. Trypsin activity was quenched with a solution of bovine serum albumin (2%) and sodium azide (0.2%) in PBS (+Mg/Ca). […]
Expression of cell surface ICAM-1 was determined by flow cytometry using a Becton Dickinson FACScan. The percentage of ICAM-1 expression in the control was calculated as follows: [(oligomeric compound-treated ICAM-1 value)−(basal ICAM-1 value)/(non-treated ICAM-1 value)−(basal ICAM-1 value))].

c-raf mRNA = c-raf mRNA expression in A549 cells; format: cell-based, human; settings: between 50-400 nM range
Description: Gapmers designed in this study are based on the parent sequence of ATGCATTCTGCCCCCAAGGA (SEQ ID No:9) which is a uniform deoxy phosphorothioate. This sequence is an antisense oligomeric compound targeted to mouse c-raf. c-raf m-RNA expression assay was carried out according to a reported procedure (Monia et al., Nature Medicinek, 1996, 2, 668). Human A549 lung carcinoma cells were obtained from the American Type Tissue Collection. These were grown in Dulbecco's modified Eagle's medium containing 1 g of glucose/liter (DMEM) and FCS (10%) and routinely passaged when 90-95% confluent.
Assay for Oligonucleoside Inhibition of c-raf Protein Synthesis: A549 cells were plated in 6-well plates (Falcon Labware, Lincoln Park, N.J.) and 24-48 hours later (when 80-90% confluent) treated with 1 μM phorbol 12,13-dibutyrate (PDBu) for 18 hours. This procedure removes greater than 75% of immunoreactive c-rafprotein from the cells. Cells were then washed three times with DMEM (3 mL) (to remove PDBu), and DMEM (1 mL) containing DOTMA/DOPE solution (20 μg/mL, LipofectinR, Bethesda Research Laboratories) was added. Oligonucleoside gapmers were then added to the required concentration (for our initial screen, 1 μM) from a 10 μM stock solution, and the two solutions were mixed by swirling of the dish. The cells were incubated at 37° C. for 4 hours, washed once with DMEM+FCS (10%) to remove the DOTMA/DOPE solution, and then additional DMEM (3 mL)+10% FCS was added and the cells were allowed to recover for another 10 hours. Total RNA is prepared 24 hours after the experiment and analyzed for c-raf and G3PDH mRNA levels after normalization to G3PDH mRNA.

| Substance | controlling ICAM-1 expression (ICAM-1; HUVEC cells (printed HWEC), compound synthesized by amidite chemistry and same compound by H-phosphonate chemistry) | inhibiting ICAM-1 expression (ICAM-1; between 3 and 100 nM range, both compounds synthesized from different chemistries) | c-raf mRNA expression inhibition (c-raf mRNA) |
| --- | --- | --- | --- |
| A*NT*NG* C*A*T*S TSCSTS GSCSCS CSCSC* A*A*G*N G*NA* (antisense ATGCATTCTGCCCCCAAGGA; 2'-MOE gapmer, mixed PN/PO/PS backbone, chemistry not fully specified) [SEQ ID No 11, 2'-MOE gapmer with PN-PO-PS-PO-PN mixed backbone, 20-mer] | efficacious | display dose response | – |
| T*NT*NT*S GSASCS ASCSGS GSCSAS CSCSAS T*ST*NT*N T* (antisense TTTGACACGGCACCATTTT; sugars from the 5' end e3 d12 e4, linkages [PN]2 s14 [PN]2 (s phosphorothioate, o phosphodiester), methylation of C not given here) [SEQ ID No 4, 2'-MOE gapmer with PN-PS-PN mixed backbone, 19-mer] | – | – | dose dependent manner |
| A*T*G* C*A*T*S TSCSTS GSCSCS CSCSC* A*A*G* G*A* (antisense ATGCATTCTGCCCCCAAGGA; 2'-MOE gapmer with mixed PO/PS backbone, marks not given here, further chemistry not given here) [SEQ ID No 9, 2'-MOE gapmer with PO-PS-PO mixed backbone, 20-mer, antisense to c-raf] | – | – | dose dependent manner |
| A*NT*NG* C*A*T*S TSCSTS GSCSCS CSCSC* A*A*G* G*A* (antisense ATGCATTCTGCCCCCAAGGA; sugars from the 5' end e6 d8 e6, linkages [PN]2 o3 s9 o5 (s phosphorothioate, o phosphodiester), methylation of C not given here) [SEQ ID No 10, 2'-MOE gapmer with PN-PO-PS-PO mixed backbone, 20-mer] | – | – | dose dependent manner |
